Source: article PMC7698306, “Exploring the Role of a Novel Peptide from Allomyrina dichotoma Larvae in Ameliorating Lipid Metabolism in Obesity” (International Journal of Molecular Sciences, 2020)
Values joined by “and” are separate entries in the source; they are usually repeats but may differ in a detail not shown here. Identical values can stand only once. No end group written: not given here.

Key:
Assay type in all cases: in vivo, C57BL/6 mice
HFD-fed mice [1] = assay: Histological analysis of liver and epididymal adipose tissue (H&E, Oil Red O, IHC) of HFD-fed mice
Description: (§1) Four-week-old male C57BL/6 mice were purchased from the Nara Bio Animal Center (NARA Biotech, Seoul, Korea) All experiments were approved by the Institutional Animal Care and Use Committee of Konkuk University (14 July 2019). All possible efforts were made to minimize the suffering and the animal count utilized in this study (KU19102). The mice were randomly divided into the following two groups after 1 week of acclimatization: n = 8 in the control group, fed a normal diet (Control, fat content of 10% kcal), and n = 30, fed a high-fat diet (HFD, fat content of 60% kcal). Mice were registered daily for food intake, and their body weights were assessed twice a week. After 5 weeks, mice with a body weight 20% higher than that of the control group were picked and divided randomly into three groups (n = 8/group): HFD + EIA10, 100 mg/kg/d; and HFD + orlistat, 60 mg/kg /d for 5 weeks. As a positive control, Orlistat was used. After 12 weeks, the mice were subjected to fasting overnight and sacrificed (Figure 2A). Blood samples were harvested for further analysis. Sections of epididymal adipose and liver tissues were fixed in 10% formaldehyde for histological analyses and frozen in liquid nitrogen.
Liver and epididymal adipose tissues were dissected and embedded in paraffin for histological examination. Tissue blocks were cut into 4-μm thick sections that were stained with hematoxylin and eosin. Frozen liver sections were cut into 8-μm thick sections that were stained with Oil Red O. Adipocyte sizes were assessed using a microscope under 200× magnification to measure tissue size.

HFD-fed mice [2] = assay: Body weight, energy intake, organ and adipose tissue weights, DXA body fat in high-fat diet (HFD)-fed mice
Description: as §1
Dual-energy X-ray absorptiometry (DXA) measurements were used to compare the body fat. DXA measurements were performed after 4 weeks of administration using a total-body scanner (InAlyzer dual X-ray absorptiometry, Medikors, Gyeonggi, Korea). Data were obtained once with low energy and once with high energy.

[3] = test system: adiponectin, leptin, SREBP-1c, PPARγ, C/EBP-α, FAS, ACC, FABP4; assay: mRNA (real-time PCR) and protein (Western blot, ELISA) levels of adipogenic/lipogenic factors in HFD-fed mice
Description: as §1
Through heart puncture, blood samples were collected and serum was isolated through centrifugation (3000 rpm for 20 min) and processed before further study at −80 °C. An automated analyzer (Abaxis VETSVAN VS2 Chemistry Analyzer, Union City, CA, USA) assessed serum levels of blood urea nitrogen, alanine aminotransferase (ALT), alkaline phosphatase, aspartate aminotransferase (AST), total protein, serum albumin, and electrolytes. Using a fast blood lipid analyzer (OSANG Healthcare Lipid Pro, Anyang, Korea), total cholesterol (TC), low-density lipoprotein cholesterol (LDL), high-density lipoprotein cholesterol (HDL), and TG were calculated. Adiponectin was analyzed by Western blotting, and leptin was quantified using a leptin enzyme-linked immunosorbent assay (ELISA) kit (MERCK, DHB, Germany).
Total cellular RNA was isolated from the epididymal adipose tissue of each group of mice using TRIzol. The first strand of complementary DNA (cDNA) was synthesized using Superscript II reverse transcriptase (Invitrogen). The conditions for RT-PCR were similar to those previously described. Quantitative real-time PCR was carried out using a Thermal Cycler Dice TP850 (Takarabio Inc., Shiga, Japan) according to the manufacturer’s protocol.
Frozen epididymal adipose tissues from mice were homogenized in liquid nitrogen. Tissue lyses were lysed in a radioimmunoprecipitation lysis buffer containing 1% protein inhibitor cocktail. They were transferred to a nitrocellulose blotting membrane and blocked with 5% skim milk, incubated overnight with primary antibodies purchased from Cell Signaling Technology, and then incubated with secondary antibodies for 2 h. Equal protein loading was ascertained using Ponceau S staining of the blotted membranes. With the help of an improved chemiluminescence detection reagent, the antibody-specific proteins were visualized and quantified using ImageJ tools.

HFD-fed mice [4] = assay: Oral glucose tolerance test, insulin levels and insulin resistance indices in HFD-fed mice
Description: as §1, with “After 5 weeks, mice with a body weight 20% higher than that of the control group were picked and divided randomly into three groups (n = 8/group):” left out, “nitrogen. An oral glucose tolerance test (OGTT) to determine the clearance of a standardized glucose load was performed after 5 weeks of oral administration. Plasma glucose was determined under postabsorptive conditions with blood collected at time ‒30 and 0 and then after oral administration of 1 g/kg of glucose at 30, 60, 90, and 120 min. Using a Blood Glucose Testing System (891 Hogye-Dong Dongan-gu, Anyang, Gyeonggi-do, Korea), blood samples were measured from the tail veins. A mouse ultrasensitive insulin ELISA package (ALPCO, Salem, NH, USA) was quantified for serum insulin. The hepatic insulin resistance index (hepatic IRI) was estimated by using the validated method of Matsuda and DeFronzo [43]. Insulin resistance was assessed using the homeostasis model assessment of insulin resistance (HOMA-IR). HOMA is a mathematically derived model of glucose–insulin feedback.” for “nitrogen.”

[5] = male C57BL/6 mice on HFD, EIA10 100 mg/kg/d or orlistat 60 mg/kg/d oral for 5 weeks, mean ± SEM, n = 8

EIAQDFKTDL [EIA10]
lipid droplets in the liver (Oil Red O staining of frozen sections) (HFD-fed mice [1]; EIA10 100 mg/kg/d oral 5 weeks, vs HFD group, Figure 2C,E): significantly reduced number of lipid droplets
size of the adipose cells (epididymal fat, H&E) (HFD-fed mice [1]; EIA10 100 mg/kg/d oral 5 weeks, vs HFD group, Figure 2D): lower than that of the HFD group
FAS in liver tissue by immunohistochemistry (IHC) (HFD-fed mice [1]; Figure 5C): inhibited
Total fat weight (HFD-fed mice [2]; DXA, male C57BL/6 mice on HFD, EIA10 100 mg/kg/d or orlistat 60 mg/kg/d oral, mean ± SEM, n = 8): 12.71 ± 0.78 g
food intake between different drug groups (appetite) (HFD-fed mice [2]; HFD-fed mice, EIA10 100 mg/kg/d or orlistat 60 mg/kg/d oral): No significant difference
Epididymal adipose tissue weight (HFD-fed mice [2]; [5]): 2.06 ± 0.34 g
Final body weight (HFD-fed mice [2]; [5]): 37.38 ± 2.55 g
Initial body weight (HFD-fed mice [2]; [5]): 23.07 ± 0.33 g
Interscapular adipose tissue weight (HFD-fed mice [2]; [5]): 0.22 ± 0.06 g
Liver weight (HFD-fed mice [2]; [5]): 1.22 ± 0.25 g
Subcutaneous adipose tissue weight (HFD-fed mice [2]; [5]): 3.36 ± 0.58 g
Total energy intake (HFD-fed mice [2]; over 10 weeks, male C57BL/6 mice on HFD, EIA10 100 mg/kg/d or orlistat 60 mg/kg/d oral for 5 weeks, mean ± SEM, n = 8): 1026.01 kcal and 1026.01 ± 2.60 kcal
plasma leptin concentration ([3]; ELISA, HFD-fed mice, Figure 4B): reducing
mRNA and protein levels of SREBP-1c in the adipose tissue ([3]; HFD-fed mice treated with EIA10 vs HFD group, Figure 4C,D): lower
protein levels of adiponectin in mouse epididymal adipose tissue ([3]; Western blot, HFD-fed mice, Figure 4A): improved
mRNA and protein levels of PPARγ ([3]; epididymal adipose tissue, HFD group mice, Figure 4C,D): decreased
protein levels of PPARγ, C/EBP-α, SREBP-1c, and FABP4 ([3]; epididymal adipose tissue, Western blot, Figure 4D): significantly decreased
FAS and ACC gene expression ([3]; epididymal adipose tissue, Western blot, Figure 5A,B): inhibitory effect
expression of PPARγ, C/EBP-α, FAS, and SREBP-1c ([3]; epididymal adipose tissue, real-time PCR, Figure 4C): downregulated
insulin resistance (hepatic IRI, HOMA-IR) (HFD-fed mice [4]; five weeks of oral EIA10 in obese mice, Figure 3E,F): alleviated IR in the obese mice to some extent
area under the OGTT curve (AUC) (HFD-fed mice [4]; oral glucose 1 g/kg after 12 h fast, vs HFD group, p < 0.05, Figure 3B): significantly lower
insulin secretion level after oral glucose (HFD-fed mice [4]; oral glucose 1 g/kg, vs HFD group, p < 0.05, Figure 3C,D): decreased
